Measurements as given in patent US6455268B1, “Hydrolytic enzyme substrates and assay method” (Iconix Pharmaceuticals Inc., priority 1999, dated 2002).

Experiments:
β-glucuronidase (GUS) = molecular target: T1, β-glucuronidase (GUS) (Escherichia coli, UniProt P05804); assay: in vitro hydrolysis with β-glucuronidase, fluorimeter excitation and emission spectra; format: biochemical, E. coli
T1 construct: purchased Sigma Chemicals, St. Louis, Mo
Experimental: A fluorimetery cuvette was prepared by adding 3 μL of 0.5 mM 7CC-FDG in DMSO (Compound F), to 3 mL of 50 mM Hepes buffer, pH 7.0, with 1 mM each CaCl2 and MgSO4. Fluorescent excitation and emission spectra of the sample were recorded using a Jobin-Yvon-SPEX Instruments Fluormax-2 fluorimeter under the following conditions: excitation at 300-500 nm with emission recorded at 515 or 530 nm (FIG. 4, scan A and B respectively); excitation at 350 nm and emission recorded at 425-650 nm (FIG. 4, scan C); excitation at 406 nm and emission recorded at 425-530 nm (FIG. 4, scan D); and excitation at 488 nm with emission recorded at 500-650 nm (FIG. 4, scan E). […] The ratio computed is the emission at 450 nm when the exciting light was of 350 nm or 406 nm divided by the emission at 515 nm when the exciting light was of 488 nm.

[1] = system: orange peel acetylesterase (OPAE); assay: in vitro hydrolysis with orange peel acetylesterase, fluorescence/FRET plate reading; format: biochemical
Experimental: (§1) Ninety-six well microtiter plates were prepared containing duplicate samples, each sample containing 4-(5-chloro-6-hydroxycoumarinamido)butyl-5-carboxamidofluorescein diacetate (“Compound 11”, 2 mM, 2 μL) in DMSO with phosphate buffered saline (PBS, 200 μL, pH 7.0). To each well was added orange peel acetylesterase (OPAE, Sigma, St. Louis, Mo., 5 μL, 39 U/mL) as a suspension in (NH4)2SO4 (2.5 M) and sodium oxalate (0.1 M). A set of control samples was prepared in which the OPAE was replaced with PBS (no enzyme). […] The plate was read prior to OPAE addition, at time 0, and at 5, 10, 30, 60, and 150 minutes after addition. Each reading was taken at three wavelength pairs using a Molecular Devices fmax fluorescent plate reader: excite 485/emission 530 (to measure fluorescein fluorescence); excite 350/emission 530 (to measure FRET fluorescence); and excite […] (to measure coumarin fluorescence).
A control set of experiments was preformed as above, but substituting a mixture of equal molar amounts of 5-carboxyfluorescein diacetate (5-CFDA, Calbiochem) and 6-chloro-7-hydroxycoumarin methyl ester. This mixture was non-fluorescent at 530 nm prior to OPAE addition and was fluorescent at 460 nm. […] Furthermore, in this unlinked mixture case, the ratio of 530 nm to 460 nm only changed from 0.13 to 0.7; in contrast to the ratio change for the compound above, from 0.13 to 13.5.

[2] = control samples with OPAE replaced by PBS (no enzyme), non-enzymatic hydrolysis; format: physicochemical; conditions: PBS pH 7.0, no enzyme
Experimental: as §1

T1 sequence (P05804 whole entry): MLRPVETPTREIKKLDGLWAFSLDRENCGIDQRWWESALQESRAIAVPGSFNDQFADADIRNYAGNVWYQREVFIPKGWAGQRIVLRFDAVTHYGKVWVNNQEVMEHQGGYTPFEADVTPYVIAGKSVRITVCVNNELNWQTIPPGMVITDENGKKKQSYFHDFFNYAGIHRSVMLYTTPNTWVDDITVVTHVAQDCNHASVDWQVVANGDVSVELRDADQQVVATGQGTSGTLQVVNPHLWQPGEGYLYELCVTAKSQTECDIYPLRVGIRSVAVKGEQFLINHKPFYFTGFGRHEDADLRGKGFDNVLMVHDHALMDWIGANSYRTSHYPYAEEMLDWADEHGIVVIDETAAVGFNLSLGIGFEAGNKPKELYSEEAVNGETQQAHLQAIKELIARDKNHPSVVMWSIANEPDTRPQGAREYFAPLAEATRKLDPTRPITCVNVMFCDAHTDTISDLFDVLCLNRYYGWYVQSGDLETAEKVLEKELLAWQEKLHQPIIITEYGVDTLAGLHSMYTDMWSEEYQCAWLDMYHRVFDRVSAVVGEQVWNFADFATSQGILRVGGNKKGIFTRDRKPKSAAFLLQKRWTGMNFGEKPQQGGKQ

| SMILES | cleavage of the substrate by β-glucuronidase (β-glucuronidase (GUS); 72 Units GUS, 50 mM Hepes pH 7.0) | dynamic range of emission ratio 450 nm/515 nm (β-glucuronidase (GUS); excitation at 350 nm and 488 nm, respectively) | dynamic range of emission ratio 450/515 (β-glucuronidase (GUS); excitation at 406 nm and 488 nm) | quenching of the coumarin moiety fluorescence in the completely cleaved product (β-glucuronidase (GUS); scan D (excitation 406 nm), 60 min. versus 0 min. time point) | ratio of 530 nm to 460 nm emission, end of change ([1]; after OPAE hydrolysis (0.94 U/mL, read up to 150 minutes), excitation 350 nm, PBS pH 7.0) | change of coumarin fluorescence (460 nm) after OPAE addition ([1]; in the presence of OPAE) | ratio of 530 nm to 460 nm emission, start of change ([1]; prior to OPAE hydrolysis, excitation 350 nm, PBS pH 7.0) | non-enzymatic hydrolysis [2] |
| --- | --- | --- | --- | --- | --- | --- | --- | --- |
| O=C(O)CCC(NC(=O)Nc1ccc2c(c1)C(=O)OC21c2ccc(OC3OC(C(=O)O)C(O)C(O)C3O)cc2Oc2cc(OC3OC(C(=O)O)C(O)C(O)C3O)ccc21)C(=O)NCCCCNC(=O)c1cc2cc(Cl)c(O)cc2oc1=O (centres unmarked) [Compound 7CC-FDG] | can be cleaved by β-glucuronidase readily | about 23 fold | about 50 fold | more than 50% | – | – | – | – |
| CC(=O)Oc1ccc2c(c1)Oc1cc(OC(C)=O)ccc1C21OC(=O)c2cc(C(=O)NCCCCNC(=O)c3cc4c(Cl)c(O)ccc4oc3=O)ccc21 [Compound 11, 4-(5-chloro-6-hydroxycoumarinamido)butyl-5-carboxamidofluorescein diacetate] | – | – | – | – | 13.5 | decrease in fluorescence | 0.13 | very low rates of non-enzymatic hydrolysis |
